Measurements from US20150291597A1, “NOVEL ORALLY BIOAVAILABLE BREATHING CONTROL MODULATING COMPOUNDS, AND METHODS OF USING SAME” (Galleon Pharmaceuticals, Inc., priority 2012, published 2015).

Tests used:
[1] = Pharmacokinetics and oral bioavailability in the rat (IV and PO dosing, plasma LC-MS/MS); format: in vivo, Sprague-Dawley rats; settings: Sprague-Dawley, oral versus intravenous dosing
Protocol: Sprague-Dawley rats (200-300 g) were fed a standard laboratory rodent diet and housed in individual cages on a 12-hour light and 12-hour dark cycle with room temperature maintained at 22±3° C. and relative humidity at 50±20%. Rats were fasted overnight before dosing, with food returned after the 6 hour blood samples were obtained. Bedding was removed until after the 6 hour blood samples were obtained. Water was provided ad libitum throughout the study.
Dosing solution of test compound was prepared in desired oral formulation for oral administration via gavage needle at 10-30 mg/kg (10 mL/kg) to three or four rats. All blood samples (250 uL per sample) were taken via jugular vein or femoral vein at 0 (predose), 15, and 30 min and 1, 2,4, 6, 8, and 24 h after oral dosing. […]
Plasma samples (incurred study samples, calibration standards, quality controls) were normally prepared as follows. […] Calibration standards were typically prepared in the range of 2 ng/ml to 10 μg/mL for quantitation. […]
All pharmacokinetic parameters were determined based on a non-compartmental approach using WinNonlin software (Pharsight, Version 5.1). The terminal elimination half-life (t1/2) was calculated as ln2/λz using the slope (λz) from linear regression analysis of the terminal phase of the plasma concentration-time curve on a semi-log scale. […]

anesthetized rats = assay: Anesthetized rat spirometry screening assay (respiratory rate, tidal volume, minute volume; IV bolus); format: in vivo; settings: 0.3 mg/kg IV bolus
From the text: Anesthetized rats provide a quick method of screening compounds for respiratory and cardiovascular activity. In contrast to the conscious rat model, this model offers an experimental set up with less variation in the baseline cardiovascular and respiratory measures. Compounds screened in this assay may be examined in a conscious rat model.
Rats were initially anesthetized with 3% isoflurane (inhaled) and femoral artery and vein cannulas were surgically inserted. Once cannulated, the rats were transitioned to urethane anesthesia (1.5 g/kg; i.v.) and a tracheal cut-down was performed. After placing the tracheal cannula, it was connected to a pneumotach to record respiratory airflow from which respiratory rate (RR), tidal volume (VT), and their product minute volume were derived. After the surgical preparation was complete, animals were allowed to stabilize for 30 minutes while respiratory rate, tidal volume, minute volume, blood pressure and heart rate were recorded continuously. Arterial blood gases (ABG) were obtained from arterial blood collected from the femoral artery. ABG measurements were taken before and 6 minutes after vehicle and each dose of compound administered. Compounds being screened were administered via bolus injections through the venous cannula followed by a saline flush (total time of administration is approximately 30 seconds), and the animal was monitored for at least 6 minutes for changes in cardiovascular efforts. Compounds were prepared in formulations identified to ensure optimal solubility. As such, vehicle controls were matched for the formulation of each compound tested. Dosing of the compound being screened was 0.1 and 0.3 mg/kg. The next dose was not administered until all cardiovascular and respiratory measures had returned to baseline levels. The positive control compounds used were N-[4,6-di-(n-propylamino)-[1,3,5]triazin-2-yl]-O,N-dimethyl-hydroxylamine or N-[2,6-di-(n-propylamino)-[1,3]pyrimidin-4-yl]-O,N-dimethyl-hydroxylamine, both administered at the end of each screening experiment (0.3 mg/kg dose) to validate the experiment and also to serve as a measure with which the compound being screened could be compared.
Data were analyzed by collecting cardiovascular and respiratory data in 30 second averages (BINs). Data were plotted 2 minutes before challenge and then 6 minutes after challenge.
FIGS. 2A-2F summarize the effects of individual compounds on peak minute ventilation (increase in VE), overall increase in 2 minute area under the curve (AUC) which is a cumulative measure of effect, along with compound stability (half-life) in rat and human microsomes.

C#CCNc1nc(NCCC)nc(N(C)OC)n1.Cl [Compound 5a, O,N-Dimethyl-N-[4-(n-propylamino)-6-(prop-2-ynylamino)-[1,3,5]triazin-2-yl]-hydroxylamine hydrochloride]
bioavailability [1]: 36% | duration of the increase in minute ventilation (anesthetized rats): approximately 2 minutes | increase in minute ventilation above baseline values (anesthetized rats): up to 143% | increase in respiratory rate (anesthetized rats): up to 42% | increase in tidal volume (anesthetized rats): up to 73%
